The values that follow come from article PMC6927413 (Chemical Communications (Cambridge, England), 2019).

Each structure is given as a SMILES string. Entries after “also recorded” stand apart in the source; their conditions may differ. Read-outs that look alike come from different tables or passages of the source.

Assay [1] addresses T1, wt-psBBOX (Pseudomonas sp., UniProt P80193). To be noted: Km for 2OG; cited from earlier work.
Assay [2] has as its target T2, psBBOX-Y201C-BFA (psBBOX*) (Pseudomonas sp., UniProt P80193, Y201C).
T2 construct: hexa-His tag (pCOLDI) (N); made in house; host or cells: E. coli BL21 (DE3)
In words: 1H NMR inhibition assay of psBBOX-Y201C-BFA (psBBOX*) catalysed GBB turnover. It counts as biochemical, Pseudomonas sp. AK1. As to the method:
(§1) in 20 mM HCl in D2O), 200 μM GBB (Cl- salt), 600 μM 2OG, in Tris-d11 (pH 7.5 in H 2O).
(§2) 2OG, in phosphate buffer (50 mM, pH 7.1, pD 7.5, in D2O). […]
([(NH4)2Fe(SO4)2.6H2O] in 20mM HCl in D2O), 600 μM 2OG, 500 μM L-ascorbate (di-sodium salt), in Tris-d11 ( p H 7 . 5 i n H 2O ) . […]

Assay [3] concerns the target T1, wt-psBBOX. To be noted: 2 μM psBBOX, 50 μM metal, 50 mM HEPES pH 7.5; for Tm Shift: relative to protein without metal. On the procedure: psBBOX Differential Scanning Fluorimetry (DSF) assays
See also Supplementary Figure S5. […]
concentration 50 μM). Controls contained 10 μL of buffer instead of metal solution. 2 mL of master mix was prepared by mixing 1.25 mL stock of sypro orange (made by diluting 1 μL of […]
and 739 μl of 50 mM HEPES pH 7.5. […]
μL. Metal solutions were made freshly. Experiments was carried out in triplicate.
DSF was performed using a MiniOpticon Real-Time PCR Detection System (Bio-Rad), monitoring protein unfolding using SYPRO orange (Invitrogen) according to reported […]
nm) filters were used for excitation and the emission, respectively. Reaction mixtures contained: 2 μM protein, 50 μM metal and 1 × SYPRO orange (final volume 50 μL). Reagents were prepared in 50 mM HEPES buffer pH 7.5. Iron solution was prepared shortly before […]
temperature increased linearly by 1 °C per minute.
The inflection point, representing Tm, was calculated by fitting the Boltzmann equation to the sigmoidal curves obtained; data were processed using GraphPad Prism 5.0. The Tm shift caused by the addition of small molecules/fragments was determined by subtraction of the “reference” Tm (protein without metal) from the Tm obtained in the presence of the metal.

The target of assay [4] is T2, psBBOX-Y201C-BFA (psBBOX*). Nature of the assay: 1H NMR binding assay with psBBOX-Y201C-BFA (psBBOX*). Also on record: species or system Pseudomonas sp. AK1. On the procedure:
as §1, §2

The subject of the next assay is hBBOX. The conditions noted are these: cited from earlier work.
The next assay concerns the target T3, psBBOX*-Zn(II) (Pseudomonas sp., UniProt P80193, Y201C).
T3 construct: hexa-His tag (pCOLDI) (N); made in house; host or cells: E. coli BL21 (DE3)
In words: Protein-observed 19F NMR (PrOF) ligand titrations with psBBOX*. It counts as binding, Pseudomonas sp. AK1. To be noted: for effect on the original psBBOX* 19F NMR signal: titration with psBBOX*-Zn(II). As to the method: NMR materials and methods2 […]
broadening of 20 Hz was applied using MestReNova version 11.0. Spectra were referenced to […]
contained: 100 μM psBBOX* in Tris buffer (50 mM, pH 7.5) and 200 mM NaCl in 90% H2O and […]

Assay [5] deals with T4, psBBOX (Pseudomonas sp., UniProt P80193).
T4 construct: N-terminal hexa-His tag (pCOLD I vector); printed for the Y201C variant, inferred for wild type from the pCOLD template (N); made in house; host or cells: Escherichia coli
It counts as binding, Pseudomonas sp. AK1. The conditions noted are these: 1H NMR reporter assay; for GBB displacement: titration into psBBOX-Zn(II)-2OG-GBB complex; for displacement of GBB and 2OG from the psBBOX active site: wild-type psBBOX. From the text:
NMR based reporter BBOX assays, using either Zn^(II) or Mn^(II) (making use of paramagnetic relaxation enhancement (PRE)) to observe ligand binding are reported.[25] These enable monitoring of co/substrate 2OG/γ-butyrobetaine (GBB; 3) psBBOX binding and inform on binding modes of inhibitors, including whether they displace GBB and/or 2OG. We now report ^19F NMR studies on ligand binding to BBOX; the work was initiated following ^1H NMR observations concerning the binding of Mildronate to psBBOX.
Since psBBOX is dimeric[21],[22] (Fig. 1C), these observations led to the proposal that binding of a second molecule of GBB (or Mildronate) to the psBBOX-Zn^(II)-2OG–GBB complex strengthens binding of the first GBB molecule, i.e. there is cooperativity in substrate binding between the monomers of the dimer.

In assay [6] the target is T4, psBBOX. To be noted: reported GBB substrate analogues, hydroxylated to L-carnitine analogues; cited from earlier work.
Assay [7] deals with T1, wt-psBBOX. In words: Fluoride release assay. It counts as biochemical, Pseudomonas sp. AK1. The arrangement: N-terminal hexa-His tag (pCOLD I vector); printed for the Y201C variant, inferred for wild type from the pCOLD template (N); made in house; host or cells: Escherichia coli. As to the method: The combined NMR studies on ligand binding led to the proposal that a new BBOX inhibitor scaffold could be identified by directly incorporating analogues of identified 2OG and GBB binding motifs, comprising appropriately positioned metal chelating and quaternary ammonium moieties, giving a ‘co-substrate/substrate’ mimic. With this in mind, RL190B (8) was synthesised (ESI ^†); it is a relatively potent psBBOX inhibitor (IC50 = 5 μM (fluoride release assay)[31]). […] By contrast with other ligand titrations using psBBOX* such significant line broadening was not observed (e.g. Fig. S11–S13, ESI ^†). Broadening of signals in PrOF NMR is often typical of weaker inhibitors; the significant (and unusual amongst studied compounds) signal attenuation observed with (8) may be a result of its binding in both 2OG and GBB cavities. This may cause changes of conformational mobility/protein destabilisation, potentially yielding a number of indistinct conformational states.
(B) RL190B is a 2OG and substrate mimic. (C) RL190B causes attenuation of the psBBOX* ^19F NMR signal. (D) RL190B inhibition of wt-psBBOX as determined by a fluoride release assay.[31] TEXT PRINTED IN THE PICTURE: (D) RL190B (8): IC50 (psBBOX) = 5 μM

The test system of the next assay is BBOX. Also on record: method as in earlier work. To be noted: 2OG-competing, metal-chelating BBOX inhibitor; cited from earlier work.

One may read the Km as the substrate concentration at which the rate is half of its maximum. By IC50 is commonly meant the point on the concentration scale where inhibition reaches its midpoint. For orientation: Kd means the constant that tells how readily two partners part at equilibrium. High values mean a looser complex, low ones a tighter complex.

T1 sequence (P80193 whole entry): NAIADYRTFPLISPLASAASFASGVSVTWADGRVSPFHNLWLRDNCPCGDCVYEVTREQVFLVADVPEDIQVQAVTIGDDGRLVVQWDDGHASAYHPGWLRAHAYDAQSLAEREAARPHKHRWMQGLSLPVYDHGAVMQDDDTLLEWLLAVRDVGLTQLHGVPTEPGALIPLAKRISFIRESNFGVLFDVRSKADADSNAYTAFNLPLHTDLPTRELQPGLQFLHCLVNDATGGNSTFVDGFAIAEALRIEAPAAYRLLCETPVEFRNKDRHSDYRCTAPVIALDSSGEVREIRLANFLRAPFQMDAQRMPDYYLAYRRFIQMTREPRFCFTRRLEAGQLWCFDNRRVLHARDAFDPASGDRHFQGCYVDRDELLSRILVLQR
T3 sequence (P80193 whole entry Y201C): as the sequence (P80193 whole entry) above, with Y201C counted along it
T2 sequence (P80193 whole entry Y201C): as the sequence (P80193 whole entry) above, with Y201C counted along it

For the compound `O=C(O)CCC(=O)C(=O)O` [2OG, 2-oxoglutarate], the Michaelis constant (Km) on wt-psBBOX [1] is 532 µM.
In [2], `O=C(N[C@@H](CSCc1ccccn1)C(=O)O)c1ncccc1O` [AR692B] showed an IC50 of 245 µM.
On to `[Co+2]` [Co(II)], for which, on wt-psBBOX [3], the Tm was 6.6±2.2 and the “Tm Shift” value is 15.7±0.8 °C.
The like results for `[Cu+2]` [Cu(II)] were, in that order, 6.3±0.5 and 12.4±1.1 °C.
As for `[Fe+2]` [Fe(II)], the “Tm Shift” value at wt-psBBOX [3] was determined as 8.4±0.7 °C.
The same measure, in the same setting: the figure for `[K+]` [K(I)] is 0.0±0.1 °C.
As to `[Mg+2]` [Mg(II)], at wt-psBBOX [3], the Tm stood at 20.1±0.2 and the “Tm Shift” value was determined as 0.0±0.1 °C.
On to `C[N+](C)(C)NCCC(=O)[O-]` [Mildronate, reference compound], for which the equilibrium dissociation constant (Kd) in assay [4] came out at 12.3 ± 1 µM. The IC50 with hBBOX is 34 to 60 µM. The “change of 19F NMR spectrum on addition to psBBOX*-Zn(II)-GBB-2OG” value on psBBOX*-Zn(II) (psBBOX*-Zn(II)-GBB-2OG) was “does not change; also recorded: did not manifest detectable changes”. Also, the “inhibition of psBBOX* catalysed GBB turnover” value in [2] (1H NMR, 2.5 μM psBBOX*, 100 μM Fe(II), 200 μM GBB, 600 μM 2OG) was “unable to detect inhibition”. Also, the GBB displacement on psBBOX [5] was no more than 60%; at psBBOX [5] (listed as 4), roughly 60%.
Take `[Mn+2]` [Mn(II)]: on wt-psBBOX [3], the Tm is 17.7±1.4 and the “Tm Shift” value came out at 1.3±0.2 °C.
The like results for `[Na+]` [Na(I)] were, in that order, 20.5±0.4 and 0.2±0.1 °C.
For `[Ni+2]` [Ni(II)], on wt-psBBOX [3], the Tm turned out to be 12.3±0.2 and the “Tm Shift” value was 18.1±0.1 °C.
`C[P+](C)(C)CCCC(=O)[O-]` [P-GBB]: on psBBOX [6], the “substrate for psBBOX” value is listed as “substrates”.
Take `C[N+](C)(C)CCCCN(O)C(=O)/C=C/C(=O)O` [RL190B, (E)-4-(3-Carboxy-N-hydroxyacrylamido)-N,N,N-trimethylbutan-1-aminium]: the IC50 at wt-psBBOX [7] was found to be 5 µM; in assay [2], 15 µM. Moreover, the “effect on the original psBBOX* 19F NMR signal” value at psBBOX*-Zn(II) was “attenuation”; at psBBOX*-Zn(II) (listed as 8), “significant broadening and almost complete attenuation”. Also, the “displacement of GBB and 2OG from the psBBOX active site” value on psBBOX [5] is “displaces both GBB and 2OG”; at psBBOX [5] (listed as 8), “displace both GBB and 2OG”.
On to `[Zn+2]` [Zn(II)], for which, at wt-psBBOX [3], the Tm stood at 6.6±0.7 and the “Tm Shift” value was determined as 12.8±1.3 °C.
As to `O=C(N[C@@H](Cc1c[nH]c2ccccc12)C(=O)O)c1nc(Cl)c2ccccc2c1O` [compound 5], the half-inhibitory concentration (IC50) in the assay with BBOX is 0.9 µM.
